Assay results taken from ChEMBL document CHEMBL3885861, “Open TG-GATES”.

Species on record: Rattus norvegicus
Experiment: Open TG-GATES - Regimen: Single
Format: toxicity, organism-based, Sprague-Dawley
Set-up: regimen Single, gender Male, age 6 weeks
Details: in vivo, po, 30 mg/kg, route gavage, dose level High; for APTT / Bas / Eos / Fbg / Hb / Ht / Lym / MCH / MCHC / MCV / Mono / Neu / PT / Plat / RBC / Ret / WBC: tissue Blood; for KIDNEY_L / KIDNEY_R / KIDNEY_TOTAL: tissue Kidney; for LIVER: tissue Liver; for A/G / ALP / ALT / AST / BUN / CRE / Ca / Cl / DBIL / GLC / IP / K / LDH / Na / PL / RALB / TBIL / TC / TG / TP / gamma-GTP: tissue Plasma

## C[C@H]1C(=O)O[C@@H]2CCN3CC=C(COC(=O)[C@](C)(O)[C@]1(C)O)[C@H]23 [MONOCROTALINE]
3 h
  TERMINAL_BW: 209.7 g
  APTT: 21.1 s
  Bas: 0%
  Eos: 1.2%
  Fbg: 305.4 mg/dL
  Hb: 13.2 g/dL
  Ht: 38.8%
  Lym: 76.4%
  MCH: 21.5 pg
  MCHC: 34%
  MCV: 63.2 fL
  Mono: 2.2%
  Neu: 19.6%
  PT: 16.2 s
  Plat: 119.2 x10_4/uL
  RBC: 615.6 x10_4/ul
  Ret: 8.9%
  WBC: 71.5 x10_2/uL
  KIDNEY_L: 0.9 g
  KIDNEY_R: 0.9 g
  KIDNEY_TOTAL: 1.8 g
  LIVER: 9.5 g
  A/G: 1.4
  ALP: 1720.6 IU/L
  ALT: 40.8 IU/L
  AST: 76.4 IU/L
  BUN: 13.2 mg/dL
  CRE: 0.2 mg/dL
  Ca: 10.4 mg/dL
  Cl: 106 meq/L
  DBIL: 0 mg/dL
  GLC: 169.4 mg/dL
  IP: 9.2 mg/dL
  K: 4.2 meq/L
  LDH: 228.2 IU/L
  Na: 142 meq/L
  PL: 127.6 mg/dL
  RALB: 3.1 g/dL
  TBIL: 0.01 mg/dL
  TC: 71.2 mg/dL
  TG: 78.8 mg/dL
  TP: 5.3 g/dL
  gamma-GTP: 1 IU/L
6 h
  TERMINAL_BW: 211.5 g
  APTT: 22.7 s
  Bas: 0%
  Eos: 1%
  Fbg: 309.8 mg/dL
  Hb: 13.7 g/dL
  Ht: 39.8%
  Lym: 78.6%
  MCH: 20.8 pg
  MCHC: 34.4%
  MCV: 60.7 fL
  Mono: 2.6%
  Neu: 17.2%
  PT: 16.2 s
  Plat: 128.2 x10_4/uL
  RBC: 657.2 x10_4/ul
  Ret: 8.4%
  WBC: 94.1 x10_2/uL
  KIDNEY_L: 0.9 g
  KIDNEY_R: 1 g
  KIDNEY_TOTAL: 1.9 g
  LIVER: 9.6 g
  A/G: 1.3
  ALP: 1398.4 IU/L
  ALT: 39.2 IU/L
  AST: 72.8 IU/L
  BUN: 11.2 mg/dL
  CRE: 0.1 mg/dL
  Ca: 10.5 mg/dL
  Cl: 106.4 meq/L
  DBIL: 0 mg/dL
  GLC: 173 mg/dL
  IP: 9.6 mg/dL
  K: 4.4 meq/L
  LDH: 273.4 IU/L
  Na: 141.8 meq/L
  PL: 137.4 mg/dL
  RALB: 3 g/dL
  TBIL: 0.018 mg/dL
  TC: 73 mg/dL
  TG: 66 mg/dL
  TP: 5.4 g/dL
  gamma-GTP: 1 IU/L
9 h
  TERMINAL_BW: 210 g
  APTT: 20.9 s
  Bas: 0%
  Eos: 0.8%
  Fbg: 301.6 mg/dL
  Hb: 13.2 g/dL
  Ht: 38.3%
  Lym: 79%
  MCH: 21.2 pg
  MCHC: 34.4%
  MCV: 61.8 fL
  Mono: 1.8%
  Neu: 18%
  PT: 16.3 s
  Plat: 122.7 x10_4/uL
  RBC: 620.2 x10_4/ul
  Ret: 9%
  WBC: 63.3 x10_2/uL
  KIDNEY_L: 1 g
  KIDNEY_R: 1 g
  KIDNEY_TOTAL: 2 g
  LIVER: 9.4 g
  A/G: 1.4
  ALP: 1227.2 IU/L
  ALT: 36.8 IU/L
  AST: 70.8 IU/L
  BUN: 9.6 mg/dL
  CRE: 0.1 mg/dL
  Ca: 10.7 mg/dL
  Cl: 105.6 meq/L
  DBIL: 0.006 mg/dL
  GLC: 178 mg/dL
  IP: 10.2 mg/dL
  K: 4.3 meq/L
  LDH: 198.2 IU/L
  Na: 142.2 meq/L
  PL: 119.4 mg/dL
  RALB: 3.1 g/dL
  TBIL: 0.022 mg/dL
  TC: 64 mg/dL
  TG: 40.8 mg/dL
  TP: 5.4 g/dL
  gamma-GTP: 1 IU/L
24 h
  TERMINAL_BW: 212.6 g
  APTT: 20.5 s
  Bas: 0%
  Eos: 0.8%
  Fbg: 302.4 mg/dL
  Hb: 13.9 g/dL
  Ht: 40.3%
  Lym: 79.4%
  MCH: 21.1 pg
  MCHC: 34.5%
  MCV: 61.3 fL
  Mono: 3%
  Neu: 16.2%
  PT: 16.1 s
  Plat: 123.3 x10_4/uL
  RBC: 658.2 x10_4/ul
  Ret: 7%
  WBC: 70.1 x10_2/uL
  KIDNEY_L: 1 g
  KIDNEY_R: 1 g
  KIDNEY_TOTAL: 1.9 g
  LIVER: 10.4 g
  A/G: 1.4
  ALP: 1607.2 IU/L
  ALT: 47.8 IU/L
  AST: 75 IU/L
  BUN: 15.8 mg/dL
  CRE: 0.2 mg/dL
  Ca: 10.5 mg/dL
  Cl: 107 meq/L
  DBIL: 0.002 mg/dL
  GLC: 172 mg/dL
  IP: 7.8 mg/dL
  K: 4.3 meq/L
  LDH: 182 IU/L
  Na: 142.2 meq/L
  PL: 182.4 mg/dL
  RALB: 3.2 g/dL
  TBIL: 0.004 mg/dL
  TC: 77 mg/dL
  TG: 108 mg/dL
  TP: 5.5 g/dL
  gamma-GTP: 1 IU/L
